Consider 32 compounds from the METLIN SMRT retention time set (Domingo-Almenara et al. 2019).

The series in a line: gradient 5% acetonitrile 3 min, to 50% in 2 min, to 85% in 15 min, held 3 min, 100 µL/min. The settings on record: column: Zorbax Extend-C18 2.1 x 50 mm; eluents: water / acetonitrile, 0.1% formic acid. The gist of the method: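 Retention times come from adduct peaks that were picked computationally and then checked by hand. The standards, pure and pooled in mixtures of ~100 molecules, were run on a Zorbax Extend-C18 column (2.1 × 50 mm, 1.8 μm) at 100 μL/min with water and acetonitrile, each with 0.1% formic acid. Detection was by quadrupole time-of-flight mass spectrometry in positive and negative ionization mode, with a dead volume of 40 μL and a dwell volume of 900 μL.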
In the case of `CCc1cccc(NC(=O)C2CCCN(c3nnc(C)c4c(C)n(-c5ccccc5)nc34)C2)c1` (configuration not stated), the RP-LC retention time was determined as 815 s.
With `COC(=O)c1cccc(Nc2c(-c3cccc(Cl)c3)nc3cnccn23)c1`, the RP-LC retention time turned out to be 905 s.
With `O=C(Cn1cnc2nc(N3CCC(C(=O)NC4CC4)CC3)sc2c1=O)Nc1ccc(Cl)cc1`, the RP-LC retention time is 686 s.
Then `CCOC(=O)COc1ccc2c(c1)C(=O)CC1(CCN(C(C)=O)CC1)O2`, with 718 s; and `O=C(NCc1cccnc1)C1CCCN(c2ncnc3c2nc2n3CCCCC2)C1` (configuration not stated), with 577 s; and `COc1ccc(-c2nnc(-c3cccnc3NCCC3=CCCCC3)o2)cc1`, with 1330 s.
Compound `O=C(NOCC1CC1)c1cc(Br)c(F)c(F)c1Nc1ccc(I)cc1Cl` gave an RP-LC retention time of 1170 s.
For the compound `CCc1ccc(N2CC(c3nc(-c4cc(OC)c(OC)c(OC)c4)no3)CC2=O)cc1` (configuration not stated), the RP-LC retention time worked out at 988 s.
Then `O=C(CCC1CCN(S(=O)(=O)c2cccc(F)c2)CC1)NC1CC1`, with 781 s; and `O=C(NCc1cccs1)C(=O)NCC1(c2cccs2)CC1`, with 860 s.
The compound `Cc1nc(Nc2ccc(Br)cn2)sc1C(=O)NC1CC1` gave an RP-LC retention time of 735 s.
Turning to `COc1cccc2cc(C(=O)Nc3nc(-c4ccccc4)cs3)c(=O)oc12`, the RP-LC retention time was found to be 1180 s.
For `O=C(c1ccoc1)N1CCN(C(=O)c2nnn3c2COC(c2ccccc2)C3)CC1` (configuration not stated), the RP-LC retention time worked out at 767 s.
Then `O=C(NC1CC1)[C@@H]1C[C@H](Oc2cccnc2)CN1C(=O)C1CCC1`, with 557 s; and `O=C(Nc1ccccc1F)N1CC(c2nc(CCOCC3CCCC3)no2)C1`, with 946 s.
The compound `CC(C)NC(=O)c1cccc(Nc2c(-c3ccccc3)nc3cnccn23)c1` displayed an RP-LC retention time of 719 s.
Turning to `COc1ccc(-n2c(=O)c(C(=O)Nc3ccc(F)c(F)c3)c(O)c3cccnc32)cc1`, the RP-LC retention time came to 983 s.
In turn, `Cc1cc(N2CCN(C(=O)Cc3cccc(F)c3)CC2)nc2nncn12` yielded an RP-LC retention time of 593 s.
On to `Cc1cccc(NS(=O)(=O)c2c[nH]c3ncccc23)c1C`, for which the RP-LC retention time is 762 s.
Regarding `COc1cc(OC)cc(C(=O)N2CCC(c3cc(N)on3)CC2)c1`, the RP-LC retention time amounted to 677 s.
Then `CCc1nnc2ccc(-c3noc(-c4cccc(F)c4)n3)cn12`, with 936 s.
For `COc1ccc(N2CCN(c3cc(SCC(=O)Nc4cc(Cl)ccc4OC)ncn3)CC2)cc1`, the RP-LC retention time is 1200 s.
Then `COC(=O)c1c(C)c(C(=O)C(C)N(C(=O)c2ccccc2Cl)C2CCCCC2)c(C)n1C` (configuration not stated), with 1160 s.
In the case of `Cc1cc(C)cc(NC(=O)N(C)Cc2nc3cc(C(=O)N(C)C)ccc3n2C)c1`, the RP-LC retention time was determined as 639 s.
`CC(C)(C)OC(=O)Cn1cnc2c(-c3cccc(Cl)c3)csc2c1=O` yielded an RP-LC retention time of 1130 s.
As to `CCOC(=O)N1CCN(c2nc(F)c(F)c(S(=O)(=O)CCNc3ccccc3)c2F)CC1`, the RP-LC retention time turned out to be 1010 s.
In turn, `O=C(NCCC1=CCCCC1)C1CCN(C(=O)c2ncn3c2COC(c2ccccc2)C3)CC1` (configuration not stated) came in with an RP-LC retention time of 820 s.
Then `CCN1C(=O)COc2ccc(-c3csc(NC(=O)CCC4CCCCC4)n3)cc21`, with 934 s; and `Cc1ccc(-c2noc(CSc3nc4cc5c(cc4c(=O)n3Cc3ccccc3)OCO5)n2)cc1`, with 1300 s; and `Cc1csc(-c2cc(S(=O)(=O)NCc3ccc(OC(C)C)cc3)c(C)s2)n1`, with 1060 s.
`CCN(CC)C(=O)c1ccc2c(c1)N(CC(=O)Nc1ccc(C(C)=O)cc1)C(=O)CO2` displayed an RP-LC retention time of 700 s.
Consider `Cc1cc(C)n(CC2CCN(C(=O)c3cc4ccccc4[nH]3)CC2)n1`, for which the RP-LC retention time was 717 s.
